# Reference: patent US20060069132A1, “Azolecarboxamide herbicides” (priority 2004, published 2006)
# Key:
# barnyardgrass [1] = assay: Test A pre-/postemergence herbicide test; format: in vivo, Echinochloa crus-galli
# Method in brief: (§1)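 Seeds sown in sandy loam received a preemergence directed soil spray of compound in non-phytotoxic solvent with surfactant; postemergence plants (2–10 cm, one- to two-leaf stage) were sprayed to runoff at the same time. After ~10 days in greenhouse, injury was rated visually versus untreated controls (0 = no effect, 100 = complete control).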
# large crabgrass [2] = assay: Test A pre-/postemergence herbicide test; format: in vivo, Digitaria sanguinalis
# Method in brief: as §1
# giant foxtail [3] = assay: Test A pre-/postemergence herbicide test; format: in vivo, Setaria faberi
# Method in brief: as §1
# morningglory [4] = assay: Test A pre-/postemergence herbicide test; format: in vivo, Ipomoea spp.
# Method in brief: as §1
# redroot pigweed = assay: Test A pre-/postemergence herbicide test; format: in vivo, Amaranthus retroflexus
# Method in brief: as §1
# velvetleaf [5] = assay: Test A pre-/postemergence herbicide test; format: in vivo, Abutilon theophrasti
# Method in brief: as §1
# barnyardgrass [6] = assay: Test B pre-/postemergence herbicide test; format: in vivo, Echinochloa crus-galli
# Method in brief: (§2)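 Formulation: non-phytotoxic solvent mix with surfactant. Timing: preemergence on seed and postemergence on 2–18 cm plants, applied concurrently. Readout after 13–15 d greenhouse: visual 0–100 control rating against controls.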
# Surinam grass = assay: Test B pre-/postemergence herbicide test; format: in vivo, Urochloa decumbens
# Method in brief: (§3)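 Evaluation is visual, comparing treated with control plants on a scale where 0 means no effect and 100 means full control. Treatments were preemergence, or postemergence on seedlings 2–18 cm tall, and held 13–15 days in the greenhouse.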
# cocklebur = assay: Test B pre-/postemergence herbicide test; format: in vivo, Xanthium strumarium
# Method in brief: as §2
# corn = assay: Test B pre-/postemergence herbicide test; format: in vivo, Zea mays
# Method in brief: as §3
# large crabgrass [7] = assay: Test B pre-/postemergence herbicide test; format: in vivo, Digitaria sanguinalis
# Method in brief: as §3
# giant foxtail [8] = assay: Test B pre-/postemergence herbicide test; format: in vivo, Setaria faberi
# Method in brief: as §3
# lambsquarters = assay: Test B pre-/postemergence herbicide test; format: in vivo, Chenopodium album
# Method in brief: as §3
# morningglory [9] = assay: Test B pre-/postemergence herbicide test; format: in vivo, Ipomoea coccinea
# Method in brief: as §2
# pigweed = assay: Test B pre-/postemergence herbicide test; format: in vivo, Amaranthus retroflexus
# Method in brief: as §3
# rice [10] = assay: Test B pre-/postemergence herbicide test; format: in vivo, Oryza sativa; conditions: preemergence
# Method in brief: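 Plants compared with untreated controls 13–15 days post-treatment and given a visual 0–100 injury score. Applications: preemergence to seeds; postemergence at 1- to 4-leaf (2–18 cm); paddy species flooded, 2-leaf stage. Vehicle non-phytotoxic, surfactant included.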
# velvetleaf [11] = assay: Test B pre-/postemergence herbicide test; format: in vivo, Abutilon theophrasti
# Method in brief: as §3
# blackgrass = assay: Test B postemergence herbicide test; format: in vivo, Alopecurus myosuroides; conditions: scale 0 (no effect) to 100 (complete control)
# Method in brief: (§4)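 Scale 0–100: zero equals no visible effect, 100 complete control, judged by eye relative to controls. Timing: 13 to 15 days in greenhouse post-treatment. Growth stage at spraying: two leaves (paddy) or one to four leaves, 2–18 cm (postemergence).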
# wheat = assay: Test B postemergence herbicide test; format: in vivo, Triticum aestivum; parameters: key to Wheat plant response rating: 0 = no effect, 100 = complete control; conditions: scale 0 (no effect) to 100 (complete control)
# Method in brief: as §4
# wild oat = assay: Test B postemergence herbicide test; format: in vivo, Avena fatua; conditions: scale 0 (no effect) to 100 (complete control)
# Method in brief: as §4
# rice [12] = assay: Test B flooded paddy test; format: in vivo, Oryza sativa; conditions: 1000 g ai/ha, visual rating, scale 0 to 100 (0 no effect, 100 complete control), 13 to 15 days
# Method in brief: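 Each value is a visual 0–100 response rating taken against controls 13 to 15 days after treatment in the greenhouse. Plants received formulated chemical postemergence at the 1- to 4-leaf stage or, in flooded paddy, at the 2-leaf stage.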
# [13] = system: small flower umbrella sedge; assay: Test B flooded paddy test; format: in vivo, Cyperus difformis; conditions: 1000 g ai/ha, visual rating, scale 0 to 100 (0 no effect, 100 complete control), 13 to 15 days
# Method in brief: as §4
# ducksalad = assay: Test B flooded paddy test; format: in vivo, Heteranthera limosa; conditions: 1000 g ai/ha, visual rating, scale 0 to 100 (0 no effect, 100 complete control), 13 to 15 days
# Method in brief: as §4
# barnyardgrass [14] = assay: Test B flooded paddy test; format: in vivo, Echinochloa crus-galli; conditions: 1000 g ai/ha, visual rating, scale 0 to 100 (0 no effect, 100 complete control), 13 to 15 days
# Method in brief: as §4
# [15] = Postemergence, 500 g ai/ha, 0 to 100 scale, 0 no effect, 100 complete control
# [16] = Postemergence, 2000 g ai/ha, 0 to 100 scale, 0 no effect, 100 complete control
# [17] = Preemergence, 500 g ai/ha, visual rating, 0 to 100 scale (0 no effect, 100 complete control)
# [18] = Preemergence, 2000 g ai/ha, visual rating, 0 to 100 scale (0 no effect, 100 complete control)
# [19] = 500 g ai/ha, visual rating 0-100, 0 no effect, 100 complete control, preemergence
# [20] = Postemergence, 500 g ai/ha, visual rating after 13 to 15 days, scale 0 (no effect) to 100 (complete control)
# [21] = postemergence, 125 g ai/ha, visual rating, scale 0 (no effect) to 100 (complete control)
# [22] = preemergence, 125 g ai/ha, 0 to 100 scale, 0 is no effect, 100 is complete control
# [23] = Postemergence, 500 g ai/ha, visual rating after 13 to 15 days
# [24] = postemergence, 125 g ai/ha, visual rating
compound,measurement,setting,value
CCn1nc(C(C)(C)C)cc1C(=O)Nc1cccc(C(=O)OC(C)(C)C)c1 [Compound 98],Barnyardgrass plant response rating,barnyardgrass [1]; [15],0
same,"Plant response rating, Barnyardgrass",barnyardgrass [1]; [16],0
same,Barnyardgrass plant response rating,barnyardgrass [1]; [17],0
same,Barnyardgrass plant response rating,barnyardgrass [1]; [18],0
same,"Crabgrass, Large plant response rating",large crabgrass [2]; [15],0
same,"Plant response rating, Crabgrass, Large",large crabgrass [2]; [16],0
same,"Crabgrass, Large plant response rating",large crabgrass [2]; [17],0
same,"Crabgrass, Large plant response rating",large crabgrass [2]; [18],0
same,"Foxtail, Giant plant response rating",giant foxtail [3]; [15],0
same,"Plant response rating, Foxtail, Giant",giant foxtail [3]; [16],0
same,"Foxtail, Giant plant response rating",giant foxtail [3]; [17],0
same,"Foxtail, Giant plant response rating",giant foxtail [3]; [18],0
same,Morningglory plant response rating,morningglory [4]; [15],0
same,"Plant response rating, Morningglory",morningglory [4]; [16],0
same,Morningglory plant response rating,morningglory [4]; [17],0
same,Morningglory plant response rating,morningglory [4]; [18],0
same,Pigweed plant response rating,redroot pigweed; [15],5
same,"Plant response rating, Pigweed",redroot pigweed; [16],10
same,Pigweed plant response rating,redroot pigweed; [17],0
same,Pigweed plant response rating,redroot pigweed; [18],0
same,Velvetleaf plant response rating,velvetleaf [5]; [15],0
same,"Plant response rating, Velvetleaf",velvetleaf [5]; [16],5
same,Velvetleaf plant response rating,velvetleaf [5]; [17],0
same,Velvetleaf plant response rating,velvetleaf [5]; [18],0
same,"Plant response rating, Barnyardgrass",barnyardgrass [6]; [19],0
same,"Plant response rating, Barnyardgrass",barnyardgrass [6]; [20],10
same,Barnyardgrass plant response rating,barnyardgrass [6]; [21],10
same,"Plant response rating, Barnyardgrass",barnyardgrass [6]; [22],0
same,"Plant response rating, Surinam Grass",Surinam grass; [19],0
same,"Plant response rating, Surinam Grass",Surinam grass; [20],20
same,Surinam Grass plant response rating,Surinam grass; [21],10
same,"Plant response rating, Surinam Grass",Surinam grass; [22],0
same,"Plant response rating, Cocklebur",cocklebur; [19],0
same,"Plant response rating, Cocklebur",cocklebur; [20],20
same,Cocklebur plant response rating,cocklebur; [21],0
same,"Plant response rating, Cocklebur",cocklebur; [22],0
same,"Plant response rating, Corn",corn; [19],0
same,"Plant response rating, Corn",corn; [20],10
same,Corn plant response rating,corn; [21],10
same,"Plant response rating, Corn",corn; [22],0
same,"Plant response rating, Crabgrass, Large",large crabgrass [7]; [19],0
same,"Plant response rating, Crabgrass, Large",large crabgrass [7]; [20],20
same,"Crabgrass, Large plant response rating",large crabgrass [7]; [21],20
same,"Plant response rating, Crabgrass, Large",large crabgrass [7]; [22],0
same,"Plant response rating, Foxtail, Giant",giant foxtail [8]; [19],0
same,"Plant response rating, Foxtail, Giant",giant foxtail [8]; [20],10
same,"Foxtail, Giant plant response rating",giant foxtail [8]; [21],10
same,"Plant response rating, Foxtail, Giant",giant foxtail [8]; [22],0
same,"Plant response rating, Lambsquarters",lambsquarters; [19],0
same,"Plant response rating, Lambsquarters",lambsquarters; [20],30
same,Lambsquarters plant response rating,lambsquarters; [21],20
same,"Plant response rating, Lambsquarters",lambsquarters; [22],0
same,"Plant response rating, Morningglory",morningglory [9]; [19],0
same,"Plant response rating, Morningglory",morningglory [9]; [20],20
same,Morningglory plant response rating,morningglory [9]; [21],0
same,"Plant response rating, Morningglory",morningglory [9]; [22],0
same,"Plant response rating, Pigweed",pigweed; [19],0
same,"Plant response rating, Pigweed",pigweed; [20],30
same,Pigweed plant response rating,pigweed; [21],10
same,"Plant response rating, Pigweed",pigweed; [22],0
same,"Plant response rating, Rice","rice [10]; 500 g ai/ha, visual rating 0-100, 0 no effect, 100 complete control",0
same,"Plant response rating, Rice","rice [10]; 125 g ai/ha, 0 to 100 scale, 0 is no effect, 100 is complete control",0
same,"Plant response rating, Velvetleaf",velvetleaf [11]; [19],0
same,"Plant response rating, Velvetleaf",velvetleaf [11]; [20],10
same,Velvetleaf plant response rating,velvetleaf [11]; [21],10
same,"Plant response rating, Velvetleaf",velvetleaf [11]; [22],0
same,"Plant response rating, Blackgrass",blackgrass; [23],0
same,Blackgrass plant response rating,blackgrass; [24],0
same,"Plant response rating, Wheat",wheat; [23],0
same,Wheat plant response rating,wheat; [24],0
same,"Plant response rating, Oat, Wild",wild oat; [23],10
same,"Oat, Wild plant response rating",wild oat; [24],0
same,Rice plant response rating,rice [12],0
same,"Sedge, Umbrella plant response rating",[13],0
same,Ducksalad plant response rating,ducksalad,0
same,Barnyardgrass plant response rating,barnyardgrass [14],0
